Values of other authors as cited in US20190060287A1 (ADARE PHARMACEUTICALS, INC., priority 2017, published 2019).
Read-outs that look alike come from different tables or passages of the source.

Key:
[1] = multiple dose controlled clinical studies

Structure (SMILES): Clc1ccc2nsnc2c1NC1=NCCN1 [tizanidine, Tizanidine]
- patients reporting sedation as a secondary event ([1]; patients receiving any dose of tizanidine): 48%
- cases in which the sedation was rated as severe ([1]; share of the sedation cases): 10%
- patients reporting that they had been drowsy during the 6 hour study (single dose 8 mg): 76%
- patients reporting that they had been drowsy during the 6 hour study (single dose 16 mg): 92%
